Where a name gives a salt, the structure may show the parent alone. Read-outs that look alike come from different tables or passages of the source.
Columns and labels:
[1] = TGA weight loss / thermal stability; type: physicochemical; conditions: for thermal stability: comparison of TGA/DSC patterns; for TGA weight loss: heated to 150° C.
Excerpt: TGA and DSC patterns were collected on a TA Q5000 thermogravimetric analyzer and a TA Discovery 2500 differential scanning calorimeter, respectively.
TGA results were collected on a TA Discovery 5500 thermogravimetric analyzer, and DSC results were collected on a TA Discovery 2500 differential scanning calorimeter.

[2] = Assessment of dynamic solubility; type: physicochemical; conditions: for pH of filtrate: 37° C.
[3] = Pharmacokinetics of hydrochloride crystal form A in Beagle dogs; type: in vivo; conditions: single i.g. 6 mg/kg
Protocol: In this experiment, three male Beagle dogs were randomly selected for administration. All the animals were fasted for at least 12 h before administration and were fed again 4 h after administration. […] The blood samples from the animals were collected through the jugular vein, with a blood sample volume of 0.5 mL/time. All collected whole blood samples were placed in centrifuge tubes containing EDTA-K2, and the centrifuge tubes were turned upside down to allow the anticoagulant and blood to be fully mixed. All the blood samples were placed on wet ice before centrifugation and centrifuged at 1500 g for 10 min to separate plasma. The plasma samples were transferred to sample tubes and stored at -40° C. to […] until analysis. The drug concentration in the plasma of each Beagle dog was detected by an LC-MS/MS method.

[4] = Assessment of 24-h solubility in pH buffers; type: physicochemical; conditions: room temperature; for FC: crystal transfer: Buffer (pH = 7.4); for solubility at 24 h: thermodynamic from solid, read-out: S: solubility, calculated as free form
[5] = Protocol: A method for testing the density and the tapped density included: (1) a certain mass of to-be-assessed sample was placed into a 5 mL measuring cylinder, and the volume at this moment was recorded. The bulk density was calculated by dividing the mass of the sample by the volume at this moment. (2) The measuring cylinder was slightly tapped 200 times, the final volume was recorded, and the tapped density was calculated by dividing the mass of the sample by the final volume. (3) Three parallel tests were conducted. A method for testing the angle of repose included: (1) a funnel was fixed vertically to a bottom surface, and the material was slowly placed into the funnel. (2) A well-proportioned cone of the material was formed on the bottom surface. The height and bottom surface diameter of the cone were measured. (3) Three parallel tests were conducted.
Remark: listed apart in the source
[6] = remark: listed apart in the source
Excerpt: DVS isotherms were collected on an SMS (Surface Measurement Systems) DVS Intrinsic.

[7] = listed as phosphate crystal form A
[8] = dog, plasma, po, male Beagle dogs, mean
[9] = listed as hydrochloride crystal form A

For `CC[S@@](=N)(=O)C[C@H]1CC[C@H](N(C)c2ncnc3[nH]ccc23)CC1` [Phosphate crystal form A], the thermal stability [1, 7] was “slightly poor thermal stability”, the TGA weight loss ([1]; listed as Phosphate Crystal Form A) was 2.82% and the TGA weight loss [1, 7] was 2.82%.

`CC[S@@](=N)(=O)C[C@H]1CC[C@H](N(C)c2ncnc3[nH]ccc23)CC1` [Hydrochloride crystal form A] gave a pH of filtrate ([2]; FaSSIF, 1 h) of 5.0, a pH of filtrate ([2]; FaSSIF, 4 h) of 5.1 and a pH of filtrate ([2]; FeSSIF, 2 h) of 4.9. For the same compound, the pH of filtrate ([2]; FeSSIF, 4 h) was 4.9, the pH of filtrate ([2]; H2O, 1 h) was 4.0 and the pH of filtrate ([2]; H2O, 2 h) was 4.0. It also gave a pH of filtrate ([2]; H2O, 4 h) of 4.0, a solubility ([2]; H2O, SGF, FaSSIF and FeSSIF, 37 °C, water, thermodynamic from solid, in H2O, fully soluble) greater than 9000 µg/mL and a pH of filtrate ([2]; SGF, 1 h) of 2.9. It also gave a pH of filtrate ([2]; SGF, 4 h) of 3.0, an AUC(0-inf) [3, 8] of 32100 ng·h/mL and an AUC(0-t) [3, 8] of 31700 ng·h/mL. The Cmax [3, 8] was 5290 ng/mL, the Tmax [3, 8] was 0.417 h and the half-life [3, 8] was 3.59 h. For the same compound, the MRT inf ([3]; dog, plasma, po, male Beagle dogs, mean, read-out: MRT0-inf) was 5.11 h, the MRT last ([3]; dog, plasma, po, male Beagle dogs, mean, read-out: MRT0-t) was 4.84 h and the clinical observation [3] was “no obvious abnormalities were found”. The “FC: crystal transfer” value [4] was “Yes”, the “FC: crystal transfer” value [4, 9] was “transformed into the free crystal form A” and the solubility at 24 h ([4]; buffer pH 2.0, pH 2, aqueous buffer, Buffer (pH = 2.0)) was greater than 9200 µg/mL. The solubility at 24 h ([4]; buffer pH 4.5, pH 4.5, aqueous buffer, Buffer (pH = 4.5)) was greater than 9200 µg/mL, the thermal stability [1] was “high” and the TGA weight loss ([1]; listed as Hydrochloride Crystal Form A) was 0.53%. The TGA weight loss [1, 9] was 0.53%, the flowability ([5]; conclusion from Carr index and angle of repose) was “high flowability” and the Bulk density ([5]; single tests 1 to 3) was 0.14 g/mL. The Average bulk density ([5]; three parallel tests) was 0.14 g/mL, the Average tapped density ([5]; three parallel tests, tapped 200 times) was 0.24 g/mL and the “UPLC peak Area, RRT 1.62” value (25° C./60% RH/4 weeks) was 0.05%. For the same compound, the “UPLC peak Area, RRT 2.10” value (25° C./60% RH/4 weeks) was 0.07%, the “UPLC peak Area, RRT 2.19” value (25° C./60% RH/4 weeks) was less than 0.05% and the “Crystal form Transform” value (25° C./60% RH/4 weeks, open) was “No”. The “UPLC peak Area, RRT 1.00” value (40° C./75% RH/4 weeks) was 99.88%, the “UPLC peak Area, RRT 1.62” value (40° C./75% RH/4 weeks) was 0.05% and the “UPLC peak Area, RRT 2.10” value (40° C./75% RH/4 weeks) was 0.07%. The “UPLC peak Area, RRT 2.19” value (40° C./75% RH/4 weeks) was less than 0.05%, the “Crystal form Transform” value (40° C./75% RH/4 weeks, open) was “No” and the Purity (40° C./75% RH/4 weeks, open) was 99.88 area %. The “UPLC peak Area, RRT 1.62” value (80° C./1 d) was 0.05%, the “UPLC peak Area, RRT 2.10” value (80° C./1 d) was 0.08% and the “UPLC peak Area, RRT 2.19” value (80° C./1 d) was less than 0.05%. For the same compound, the “Crystal form Transform” value (80° C./1 d, closed) was “No”, the Purity (80° C./1 d, closed) was 99.87 area % and the “UPLC peak Area, RRT 1.00” value (Starting) was 99.82%. The “UPLC peak Area, RRT 1.62” value (Starting) was 0.05%, the “UPLC peak Area, RRT 2.10” value (Starting) was 0.08% and the “UPLC peak Area, RRT 2.19” value (Starting) was 0.06%. The Starting purity (before storage, UPLC) was 99.82 area %, the hygroscopicity ([6]; 25° C./80% RH) was “slight hygroscopicity” and the “Crystal transformation after DVS” value ([6]; XRPD before and after DVS) was “No”.

In the case of `CC[S@@](=N)(=O)C[C@H]1CC[C@H](N(C)c2ncnc3[nH]ccc23)CC1` [Sulfate crystal form A], the thermal stability ([1]; listed as sulfate crystal form A) is reported as “poor thermal stability” and the “TGA stepwise weight loss” value ([1]; heated to 100° C.) is reported as 14.83%.

Reference: patent US20260224573A1, “CRYSTAL FORM OF COMPOUND, AND PREPARATION METHOD AND USE THEREOF” (FELICAMED BIOTECHNOLOGY CO., LTD., priority 2023, published 2026)
